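Cells were grown in 96-well plates and exposed to each compound for 48 hours at five concentrations; endpoints were interpolated linearly between bracketing concentrations, or set to the highest concentration if not reached. At the GI50, growth is halved.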 Calls of active or inactive are those of the source. No stated cut-off is given here; in the data, active = GI50 up to about 1.1 µM and inactive = higher.
Tests used:
Test in all cases: inhibition of tumour cell growth, NCI panel, 48 h
CAKI-1 = system: CAKI-1
SK-MEL-5 = system: SK-MEL-5
SW-620 = system: SW-620
HCT-116 = system: HCT-116
HOP-62 = system: HOP-62
COLO 205 = system: COLO 205
IGROV-1 = system: IGROV-1
DU-145 = system: DU-145
SR = system: SR
LOX IMVI = system: LOX IMVI
OVCAR-3 = system: OVCAR-3
HOP-92 = system: HOP-92
SK-MEL-2 = system: SK-MEL-2
BT-549 = system: BT-549
K562 = system: K562
PC-3 = system: PC-3
SF-268 = system: SF-268
RPMI-8226 = system: RPMI-8226
NCI-H460 = system: NCI-H460
OVCAR-8 = system: OVCAR-8

Structure (SMILES)	GI50 (CAKI-1)	GI50 (SK-MEL-5)	GI50 (SW-620)	GI50 (HCT-116)	GI50 (HOP-62)	GI50 (COLO 205)	GI50 (IGROV-1)	GI50 (DU-145)	GI50 (SR)	GI50 (LOX IMVI)	GI50 (OVCAR-3)	GI50 (HOP-92)	GI50 (SK-MEL-2)	GI50 (BT-549)	GI50 (K562)	GI50 (PC-3)	GI50 (SF-268)	GI50 (RPMI-8226)	GI50 (NCI-H460)	GI50 (OVCAR-8)
COc1ccc(-c2cc(C3CC3)nc(SCC(=O)O)c2C#N)cc1	> 100 µM (inactive)	> 100 µM (inactive)	> 100 µM (inactive)	> 100 µM (inactive)	> 100 µM (inactive)	> 100 µM (inactive)	> 100 µM (inactive)	85.3 µM (inactive)	55.8 µM (inactive)	36.6 µM (inactive)	83.2 µM (inactive)	82.6 µM (inactive)	> 100 µM (inactive)	> 100 µM (inactive)	64.3 µM (inactive)	79.8 µM (inactive)	> 100 µM (inactive)	35.6 µM (inactive)	52.1 µM (inactive)	> 100 µM (inactive)
Cc1c2c(Cl)c3c(c(Cl)c2c(C)c2c(Cl)c4c(c(Cl)c12)C(c1ccccc1)(c1ccccc1)C4(c1ccccc1)c1ccccc1)C(c1ccccc1)(c1ccccc1)C3(c1ccccc1)c1ccccc1	> 100 µM (inactive)	> 100 µM (inactive)	> 100 µM (inactive)	> 100 µM (inactive)	> 100 µM (inactive)	> 100 µM (inactive)	> 100 µM (inactive)	> 100 µM (inactive)	> 100 µM (inactive)	> 100 µM (inactive)	> 100 µM (inactive)	> 100 µM (inactive)	> 100 µM (inactive)	> 100 µM (inactive)	> 100 µM (inactive)	> 100 µM (inactive)	> 100 µM (inactive)		> 100 µM (inactive)	> 100 µM (inactive)
CCOC(=O)c1nc2cc(C(F)(F)F)ccc2nc1Nc1ccc(C(=O)NC(C(=O)OCC)C(=O)OCC)cc1	19 µM (inactive)	20.5 µM (inactive)	40.8 µM (inactive)	19 µM (inactive)	13.8 µM (inactive)	44.4 µM (inactive)	20.1 µM (inactive)	51.6 µM (inactive)	46.9 µM (inactive)	54.2 µM (inactive)	45.4 µM (inactive)	27.4 µM (inactive)	52.5 µM (inactive)	23.6 µM (inactive)	43.2 µM (inactive)	22.9 µM (inactive)	19.5 µM (inactive)	11.5 µM (inactive)	73.6 µM (inactive)	
S=C(S)N1CCN(c2cccc(Cl)c2)CC1	42.1 µM (inactive)	27.9 µM (inactive)	65.3 µM (inactive)	41.4 µM (inactive)	82.8 µM (inactive)	76.4 µM (inactive)	> 100 µM (inactive)	> 100 µM (inactive)	39.4 µM (inactive)	36.7 µM (inactive)	> 100 µM (inactive)	80.7 µM (inactive)	85.5 µM (inactive)	86.5 µM (inactive)	48.9 µM (inactive)	66.8 µM (inactive)	76.4 µM (inactive)	47.4 µM (inactive)		> 100 µM (inactive)
CC(=O)O[C@H]1C[C@@H](O[C@H]2[C@@H](O)C[C@H](O[C@H]3[C@@H](O)C[C@H](O[C@H]4CC[C@@]5(C)[C@H](CC[C@@H]6[C@@H]5C[C@@H](O)[C@]5(C)[C@@H](C7=CC(=O)OC7)CC[C@]65O)C4)O[C@@H]3C)O[C@@H]2C)O[C@H](C)[C@H]1O.CC(=O)O[C@H]1[C@@H](O)C[C@@H](O[C@H]2[C@@H](O)C[C@H](O[C@H]3[C@@H](O)C[C@H](O[C@H]4CC[C@@]5(C)[C@H](CC[C@@H]6[C@@H]5C[C@@H](O)[C@]5(C)[C@@H](C7=CC(=O)OC7)CC[C@]65O)C4)O[C@@H]3C)O[C@@H]2C)O[C@@H]1C	0.0308 µM (active)	0.0296 µM (active)	0.0435 µM (active)	0.0262 µM (active)	0.0336 µM (active)	0.0472 µM (active)	0.0354 µM (active)	0.0192 µM (active)	0.0443 µM (active)	0.0313 µM (active)	0.0119 µM (active)	0.0561 µM (active)	0.0679 µM (active)	0.0425 µM (active)	0.0291 µM (active)	0.0322 µM (active)	0.0236 µM (active)	0.0395 µM (active)	0.0148 µM (active)	0.0378 µM (active)
CCCCOc1ccc(S(=O)(=O)N/C(=N\O)Nc2ccc(Cl)cc2)cc1	10.8 µM (inactive)	14.3 µM (inactive)	17.5 µM (inactive)	16.9 µM (inactive)	17.9 µM (inactive)	18.3 µM (inactive)		15.9 µM (inactive)	11 µM (inactive)	16 µM (inactive)	14.9 µM (inactive)	4.79 µM (inactive)	16.3 µM (inactive)	13.4 µM (inactive)	18.3 µM (inactive)	15.8 µM (inactive)	16 µM (inactive)	21.1 µM (inactive)	15.4 µM (inactive)	17.9 µM (inactive)
